Results from PubChem BioAssay AID1259407 (Chemical Carcinogenesis Research Information System (CCRIS), 2018).
The source made the active and inactive calls. No rule for the calls is given here.

System: CCRIS mutagenicity, Ames/micronucleus/aberration tests
Assay: CCRIS mutagenicity studies
[1] = Test System: AMES SALMONELLA TYPHIMURIUM, Strain/Indicator: TA98, Metabolic Activation: NONE, Method: PREINCUBATION
[2] = Test System: AMES SALMONELLA TYPHIMURIUM, Strain/Indicator: TA100, Metabolic Activation: NONE, Method: PREINCUBATION
[3] = Test System: AMES SALMONELLA TYPHIMURIUM, Strain/Indicator: TA1535, Metabolic Activation: NONE, Method: PREINCUBATION
[4] = Test System: AMES SALMONELLA TYPHIMURIUM, Strain/Indicator: TA1537, Metabolic Activation: NONE, Method: PREINCUBATION

In the case of CC(=O)Oc1cc(C=O)cc2c1C(COC(N)=O)C1(OC(C)=O)ON2CC2C1N2C(C)=O (stereo not drawn), the mutagenic call [1] is reported as “inactive; negative”, the mutagenic call (Test System: AMES SALMONELLA TYPHIMURIUM, Strain/Indicator: TA98, Metabolic Activation: RAT, LIVER, S-9, PHENOBARBITAL AND 5,6-BENZOFLAVONE, Method: PREINCUBATION) is reported as “inactive; negative” and the mutagenic call [2] is reported as “inactive; negative”. The mutagenic call (Test System: AMES SALMONELLA TYPHIMURIUM, Strain/Indicator: TA100, Metabolic Activation: RAT, LIVER, S-9, PHENOBARBITAL AND 5,6-BENZOFLAVONE, Method: PREINCUBATION) was “inactive; negative”, the mutagenic call (Test System: AMES SALMONELLA TYPHIMURIUM, Strain/Indicator: TA102, Metabolic Activation: NONE, Method: PREINCUBATION) was “inactive; negative” and the mutagenic call (Test System: AMES SALMONELLA TYPHIMURIUM, Strain/Indicator: TA102, Metabolic Activation: RAT, LIVER, S-9, PHENOBARBITAL AND 5,6-BENZOFLAVONE, Method: PREINCUBATION) was “active; positive”. For the same compound, the mutagenic call [3] was “inactive; negative”, the mutagenic call (Test System: AMES SALMONELLA TYPHIMURIUM, Strain/Indicator: TA1535, Metabolic Activation: RAT, LIVER, S-9, PHENOBARBITAL AND 5,6-BENZOFLAVONE, Method: PREINCUBATION) was “inactive; negative” and the mutagenic call [4] was “inactive; negative”. The mutagenic call (Test System: AMES SALMONELLA TYPHIMURIUM, Strain/Indicator: TA1537, Metabolic Activation: RAT, LIVER, S-9, PHENOBARBITAL AND 5,6-BENZOFLAVONE, Method: PREINCUBATION) was “inactive; negative”.
Cc1cc2nc3cc(C)c(N)cc3[n+](-c3ccccc3)c2cc1N was tested, and the mutagenic call (Test System: AMES SALMONELLA TYPHIMURIUM, Strain/Indicator: TA98, Method: PREINCUBATION) was “active; positive” and the mutagenic call (Test System: AMES SALMONELLA TYPHIMURIUM, Strain/Indicator: TA100, Method: PREINCUBATION) was “active; positive”.
For CC(Br)(CBr)CBr, the mutagenic call (Test System: AMES SALMONELLA TYPHIMURIUM, Strain/Indicator: TA98, Metabolic Activation: NONE, Method: FLASK ASSAY) was “inactive; negative”, the mutagenic call (Test System: AMES SALMONELLA TYPHIMURIUM, Strain/Indicator: TA98, Metabolic Activation: RAT, LIVER, S-9, AROCLOR 1254, Method: FLASK ASSAY) was “inactive; negative” and the mutagenic call (Test System: AMES SALMONELLA TYPHIMURIUM, Strain/Indicator: TA100, Metabolic Activation: NONE, Method: FLASK ASSAY) was “inactive; negative”. The mutagenic call (Test System: AMES SALMONELLA TYPHIMURIUM, Strain/Indicator: TA100, Metabolic Activation: RAT, LIVER, S-9, AROCLOR 1254, Method: FLASK ASSAY) was “inactive; negative”, the mutagenic call (Test System: AMES SALMONELLA TYPHIMURIUM, Strain/Indicator: TA1535, Metabolic Activation: NONE, Method: FLASK ASSAY) was “inactive; negative” and the mutagenic call (Test System: AMES SALMONELLA TYPHIMURIUM, Strain/Indicator: TA1535, Metabolic Activation: RAT, LIVER, S-9, AROCLOR 1254, Method: FLASK ASSAY) was “inactive; negative”. For the same compound, the mutagenic call (Test System: AMES SALMONELLA TYPHIMURIUM, Strain/Indicator: TA1537, Metabolic Activation: NONE, Method: FLASK ASSAY) was “inactive; negative”, the mutagenic call (Test System: AMES SALMONELLA TYPHIMURIUM, Strain/Indicator: TA1537, Metabolic Activation: RAT, LIVER, S-9, AROCLOR 1254, Method: FLASK ASSAY) was “inactive; negative” and the mutagenic call (Test System: AMES SALMONELLA TYPHIMURIUM, Strain/Indicator: TA1538, Metabolic Activation: NONE, Method: FLASK ASSAY) was “inactive; negative”. The mutagenic call (Test System: AMES SALMONELLA TYPHIMURIUM, Strain/Indicator: TA1538, Metabolic Activation: RAT, LIVER, S-9, AROCLOR 1254, Method: FLASK ASSAY) was “inactive; negative”, the mutagenic call (Test System: MOUSE LYMPHOMA, Strain/Indicator: L5178Y (TK+/TK-), Metabolic Activation: NONE, Method: SUSPENSION/PLATE) was “active; positive” and the mutagenic call (Test System: MOUSE LYMPHOMA, Strain/Indicator: L5178Y (TK+/TK-), Metabolic Activation: RAT, LIVER, S-9, AROCLOR 1254, Method: SUSPENSION/PLATE) was “active; positive”.
CC(O)CO (stereo not drawn) was tested, and the mutagenic call (Test System: AMES SALMONELLA TYPHIMURIUM, Strain/Indicator: TA98, Metabolic Activation: HAMSTER, LIVER, S-9, AROCLOR 1254, Method: PREINCUBATION) was “inactive; negative”, the mutagenic call [1] was “inactive; negative” and the mutagenic call (Test System: AMES SALMONELLA TYPHIMURIUM, Strain/Indicator: TA98, Metabolic Activation: RAT, LIVER, S-9, AROCLOR 1254, Method: PREINCUBATION) was “inactive; negative”. For the same compound, the mutagenic call (Test System: AMES SALMONELLA TYPHIMURIUM, Strain/Indicator: TA100, Metabolic Activation: HAMSTER, LIVER, S-9, AROCLOR 1254, Method: PREINCUBATION) was “inactive; negative”, the mutagenic call [2] was “inactive; negative” and the mutagenic call (Test System: AMES SALMONELLA TYPHIMURIUM, Strain/Indicator: TA100, Metabolic Activation: RAT, LIVER, S-9, AROCLOR 1254, Method: PREINCUBATION) was “inactive; negative”. The mutagenic call (Test System: AMES SALMONELLA TYPHIMURIUM, Strain/Indicator: TA1535, Metabolic Activation: HAMSTER, LIVER, S-9, AROCLOR 1254, Method: PREINCUBATION) was “inactive; negative”, the mutagenic call [3] was “inactive; negative” and the mutagenic call (Test System: AMES SALMONELLA TYPHIMURIUM, Strain/Indicator: TA1535, Metabolic Activation: RAT, LIVER, S-9, AROCLOR 1254, Method: PREINCUBATION) was “inactive; negative”. The mutagenic call (Test System: AMES SALMONELLA TYPHIMURIUM, Strain/Indicator: TA1537, Metabolic Activation: HAMSTER, LIVER, S-9, AROCLOR 1254, Method: PREINCUBATION) was “inactive; negative”, the mutagenic call [4] was “inactive; negative” and the mutagenic call (Test System: AMES SALMONELLA TYPHIMURIUM, Strain/Indicator: TA1537, Metabolic Activation: RAT, LIVER, S-9, AROCLOR 1254, Method: PREINCUBATION) was “inactive; negative”.
For NC(=O)c1ccc(N)cc1, the mutagenic call (Test System: AMES SALMONELLA TYPHIMURIUM, Strain/Indicator: TA98, Metabolic Activation: HAMSTER, LIVER, S-9, AROCLOR 1254, Method: STANDARD PLATE) was “inactive; negative”, the mutagenic call (Test System: AMES SALMONELLA TYPHIMURIUM, Strain/Indicator: TA98, Metabolic Activation: NONE, Method: STANDARD PLATE) was “inactive; negative” and the mutagenic call (Test System: AMES SALMONELLA TYPHIMURIUM, Strain/Indicator: TA98, Metabolic Activation: RAT, LIVER, S-9, AROCLOR 1254, Method: STANDARD PLATE) was “inactive; negative”. For the same compound, the mutagenic call (Test System: AMES SALMONELLA TYPHIMURIUM, Strain/Indicator: TA100, Metabolic Activation: HAMSTER, LIVER, S-9, AROCLOR 1254, Method: STANDARD PLATE) was “inactive; negative”, the mutagenic call (Test System: AMES SALMONELLA TYPHIMURIUM, Strain/Indicator: TA100, Metabolic Activation: NONE, Method: STANDARD PLATE) was “inactive; negative” and the mutagenic call (Test System: AMES SALMONELLA TYPHIMURIUM, Strain/Indicator: TA100, Metabolic Activation: RAT, LIVER, S-9, AROCLOR 1254, Method: STANDARD PLATE) was “inactive; negative”. For the same compound, the mutagenic call (Test System: AMES SALMONELLA TYPHIMURIUM, Strain/Indicator: TA1535, Metabolic Activation: HAMSTER, LIVER, S-9, AROCLOR 1254, Method: STANDARD PLATE) was “inactive; negative”, the mutagenic call (Test System: AMES SALMONELLA TYPHIMURIUM, Strain/Indicator: TA1535, Metabolic Activation: NONE, Method: STANDARD PLATE) was “inactive; negative” and the mutagenic call (Test System: AMES SALMONELLA TYPHIMURIUM, Strain/Indicator: TA1535, Metabolic Activation: RAT, LIVER, S-9, AROCLOR 1254, Method: STANDARD PLATE) was “inactive; negative”. The mutagenic call (Test System: AMES SALMONELLA TYPHIMURIUM, Strain/Indicator: TA1537, Metabolic Activation: HAMSTER, LIVER, S-9, AROCLOR 1254, Method: STANDARD PLATE) was “inactive; negative”, the mutagenic call (Test System: AMES SALMONELLA TYPHIMURIUM, Strain/Indicator: TA1537, Metabolic Activation: NONE, Method: STANDARD PLATE) was “inactive; negative” and the mutagenic call (Test System: AMES SALMONELLA TYPHIMURIUM, Strain/Indicator: TA1537, Metabolic Activation: RAT, LIVER, S-9, AROCLOR 1254, Method: STANDARD PLATE) was “inactive; negative”. For the same compound, the mutagenic call (Test System: AMES SALMONELLA TYPHIMURIUM, Strain/Indicator: TA1538, Metabolic Activation: HAMSTER, LIVER, S-9, AROCLOR 1254, Method: STANDARD PLATE) was “inactive; negative”, the mutagenic call (Test System: AMES SALMONELLA TYPHIMURIUM, Strain/Indicator: TA1538, Metabolic Activation: NONE, Method: STANDARD PLATE) was “inactive; negative” and the mutagenic call (Test System: AMES SALMONELLA TYPHIMURIUM, Strain/Indicator: TA1538, Metabolic Activation: RAT, LIVER, S-9, AROCLOR 1254, Method: STANDARD PLATE) was “inactive; negative”. For the same compound, the mutagenic call (Test System: Mouse lymphoma, Strain/Indicator: L5178Y (tk+/tk-), Metabolic Activation: None, Method: Suspension/plate) was “inactive; negative” and the mutagenic call (Test System: Mouse lymphoma, Strain/Indicator: L5178Y (tk+/tk-), Metabolic Activation: Rat, Liver, S-9, Aroclor 1254, Method: Suspension/plate) was “inactive; negative”.
